According to ChEMBL document CHEMBL1130963, “Design and construction of novel thrombin inhibitors featuring P3-P4 quaternary lactam dipeptide surrogates” (Bioorg Med Chem Lett, 1998):

Experiments:
[1] = target: Prothrombin (Homo sapiens, UniProt P00734); assay: In vitro inhibitory activity was evaluated against thrombin (FIIa)
[2] = target: Serine protease 1 (Homo sapiens, UniProt P07477)
[3] = target: T1, Plasminogen (Homo sapiens, UniProt P00747); assay: In vitro inhibitory activity was evaluated against thrombolytic enzyme plasmin; Inactive
T1 sequence (P00747 97-580 limits assumed): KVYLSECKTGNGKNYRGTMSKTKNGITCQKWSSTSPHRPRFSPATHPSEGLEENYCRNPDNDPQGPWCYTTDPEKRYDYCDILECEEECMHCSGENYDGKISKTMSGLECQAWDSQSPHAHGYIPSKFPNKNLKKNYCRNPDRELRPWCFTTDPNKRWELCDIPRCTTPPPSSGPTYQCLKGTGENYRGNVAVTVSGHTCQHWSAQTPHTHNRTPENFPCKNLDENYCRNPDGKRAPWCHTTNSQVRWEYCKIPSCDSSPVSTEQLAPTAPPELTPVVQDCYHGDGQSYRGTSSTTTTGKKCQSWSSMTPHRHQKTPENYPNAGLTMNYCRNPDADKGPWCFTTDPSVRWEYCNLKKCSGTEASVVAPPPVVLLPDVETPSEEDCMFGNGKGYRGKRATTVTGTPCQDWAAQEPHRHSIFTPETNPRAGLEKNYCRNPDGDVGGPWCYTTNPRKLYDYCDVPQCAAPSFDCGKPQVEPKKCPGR
T1 sequence (P00747 581-810 limits assumed): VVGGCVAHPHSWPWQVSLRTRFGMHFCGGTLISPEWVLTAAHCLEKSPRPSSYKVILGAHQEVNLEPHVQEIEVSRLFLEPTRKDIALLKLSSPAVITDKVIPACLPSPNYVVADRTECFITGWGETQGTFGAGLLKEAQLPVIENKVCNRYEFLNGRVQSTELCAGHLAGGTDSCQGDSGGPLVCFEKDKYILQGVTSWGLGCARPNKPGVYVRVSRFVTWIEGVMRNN

[4] = Ratio of thrombolytic enzyme plasmin to thrombin (FIIa) was evaluated
[5] = target: T2, Coagulation factor X (Homo sapiens, UniProt P00742); assay: In vitro inhibitory activity was evaluated against thrombin factor Xa (FXa); Inactive
T2 sequence (P00742 41-179 limits assumed): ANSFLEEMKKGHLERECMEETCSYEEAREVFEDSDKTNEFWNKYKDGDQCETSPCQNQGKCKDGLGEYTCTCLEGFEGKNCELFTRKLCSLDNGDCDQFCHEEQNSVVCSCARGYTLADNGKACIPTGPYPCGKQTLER
T2 sequence (P00742 235-488 limits assumed): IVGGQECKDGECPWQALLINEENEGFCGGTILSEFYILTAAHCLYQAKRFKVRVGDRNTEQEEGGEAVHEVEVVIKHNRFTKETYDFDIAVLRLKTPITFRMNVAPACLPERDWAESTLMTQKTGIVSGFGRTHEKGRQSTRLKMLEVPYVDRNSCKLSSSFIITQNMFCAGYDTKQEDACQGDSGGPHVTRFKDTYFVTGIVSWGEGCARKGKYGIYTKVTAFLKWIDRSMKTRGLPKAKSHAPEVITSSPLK

[6] = target: T2, Coagulation factor X
[7] = target: T1, Plasminogen; assay: In vitro inhibitory activity was evaluated against thrombolytic enzyme plasmin
[8] = Ratio of thrombin factor Xa (FXa) to thrombin (FIIa) was evaluated; Very high

Sequence of Serine protease 1 (P07477 whole entry): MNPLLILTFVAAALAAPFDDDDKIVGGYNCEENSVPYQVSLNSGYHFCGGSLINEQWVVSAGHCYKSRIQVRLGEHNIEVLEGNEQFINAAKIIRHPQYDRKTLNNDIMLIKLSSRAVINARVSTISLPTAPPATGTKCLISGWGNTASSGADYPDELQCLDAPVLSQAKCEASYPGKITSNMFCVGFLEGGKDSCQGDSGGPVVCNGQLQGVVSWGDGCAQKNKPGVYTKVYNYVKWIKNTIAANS

Row | Compound | IC50 [1] [nM] | IC50 [2] [nM] | IC50 [3] | Ratio [4] | IC50 [5] | IC50 [6] [nM] | IC50 [7] [nM] | Ratio [8]
1 | N=C(N)N1CCC[C@H](NC(=O)CN2CCC[C@@](N)(Cc3ccccc3)C2=O)[C@@H]1O | 138 | 2500 | Not Active | 18.2 | Not Active |  |  | 
2 | CCOC(=O)[C@]1(NS(=O)(=O)Cc2ccccc2)CCCN(CC(=O)N[C@H]2CCCN(C(=N)N)[C@H]2O)C1=O | 64.4 | 202 |  | 3.1 |  | 43.2 | > 2500 | 
3 | N=C(N)N1CCC[C@H](NC(=O)CN2CCC[C@H](NS(=O)(=O)Cc3ccccc3)C2=O)C1O (stereo partly drawn) |  |  |  | 128 |  |  | > 2500 | 
4 | N=C(N)N1CCC[C@H](NC(=O)CN2CCC[C@@](N)(Cc3ccccc3)C2=O)[C@H]1O | 2.07 | 139 | Not Active | 67.1 | Not Active |  |  | Very high
5 | CCOC(=O)[C@]1(NS(=O)(=O)Cc2ccccc2)CCCN(CC(=O)N[C@H]2CCCN(C(=N)N)[C@@H]2O)C1=O | 1.1 | 2 |  | 1.8 |  | 5.78 | 271 | 
